Measured values reported in PubChem BioAssay (NCI).
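Five compound concentrations were applied to cells in 96-well plates for 48 hours; endpoints were derived by simple linear interpolation of the resulting dose-response curve. GI50: concentration for 50% inhibition of growth. TGI denotes the concentration required for complete inhibition of growth.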

Assays:
Assay in all cases: NCI anticancer screen, dose series, 48 h
[1] = tested on: 786-0 renal
[2] = tested on: A498 renal
[3] = tested on: A549 NSCLC
[4] = tested on: ACHN renal
[5] = tested on: BT-549 breast
[6] = tested on: CCRF-CEM leukemia
[7] = tested on: COLO 205 colon
[8] = tested on: DU-145 prostate
[9] = tested on: EKVX NSCLC
[10] = tested on: HCC-2998 colon
[11] = tested on: HCT-116 colon
[12] = tested on: HCT-15 colon
[13] = tested on: HOP-62 NSCLC
[14] = tested on: HOP-92 NSCLC
[15] = tested on: HS 578T breast
[16] = tested on: HT29 colon
[17] = tested on: IGROV1 ovarian
[18] = tested on: K-562 leukemia
[19] = tested on: KM12 colon
[20] = tested on: LOX IMVI melanoma
[21] = tested on: M14 melanoma
[22] = tested on: MCF7 breast
[23] = tested on: MDA-MB-231 breast
[24] = tested on: MOLT-4 leukemia
[25] = tested on: NCI-H226 lung
[26] = tested on: NCI-H23 lung
[27] = tested on: NCI-H460 lung
[28] = tested on: NCI-H522 lung
[29] = tested on: NCI/ADR-RES ovarian
[30] = tested on: OVCAR-3 ovarian
[31] = tested on: OVCAR-4 ovarian
[32] = tested on: OVCAR-5 ovarian
[33] = tested on: OVCAR-8 ovarian
[34] = tested on: PC-3 prostate
[35] = tested on: RPMI-8226 leukemia
[36] = tested on: RXF 393 renal
[37] = tested on: SF-268 CNS
[38] = tested on: SF-539 CNS
[39] = tested on: SK-MEL-2 melanoma
[40] = tested on: SK-MEL-28 melanoma
[41] = tested on: SK-MEL-5 melanoma
[42] = tested on: SK-OV-3 ovarian
[43] = tested on: SNB-19 CNS
[44] = tested on: SNB-75 CNS
[45] = tested on: SR leukemia
[46] = tested on: SW-620 colon
[47] = tested on: T-47D breast
[48] = tested on: U251 CNS
[49] = tested on: UACC-257 melanoma
[50] = tested on: UACC-62 melanoma
[51] = tested on: UO-31 renal
[52] = tested on: CAKI-1 renal
[53] = tested on: HL-60(TB) leukemia
[54] = tested on: MALME-3M melanoma
[55] = tested on: MDA-MB-435
[56] = tested on: SF-295 CNS
[57] = tested on: SN12C renal
[58] = tested on: TK-10 renal

CC(=O)CCc1ccc(Oc2c3c(nc4ccccc24)OCC3)cc1
GI50 [1]: > 100 µM | TGI [1]: > 100 µM | GI50 [2]: 9.22 µM | TGI [2]: 50.1 µM | GI50 [3]: 11.7 µM | TGI [3]: > 100 µM | GI50 [4]: 53.9 µM | TGI [4]: > 100 µM | GI50 [5]: 67.5 µM | TGI [5]: > 100 µM | GI50 [6]: > 100 µM | TGI [6]: > 100 µM | GI50 [7]: > 100 µM | TGI [7]: > 100 µM | GI50 [8]: > 100 µM | TGI [8]: > 100 µM | GI50 [9]: 13.8 µM | TGI [9]: 98.6 µM | GI50 [10]: 32.5 µM | TGI [10]: 91.8 µM | GI50 [11]: > 100 µM | TGI [11]: > 100 µM | GI50 [12]: 58.8 µM | TGI [12]: > 100 µM | GI50 [13]: > 100 µM | TGI [13]: > 100 µM | GI50 [14]: 42.9 µM | TGI [14]: > 100 µM | GI50 [15]: 71.4 µM | TGI [15]: > 100 µM | GI50 [16]: > 100 µM | TGI [16]: > 100 µM | GI50 [17]: > 100 µM | TGI [17]: > 100 µM | GI50 [18]: 59.3 µM | TGI [18]: > 100 µM | GI50 [19]: > 100 µM | TGI [19]: > 100 µM | GI50 [20]: > 100 µM | TGI [20]: > 100 µM | GI50 [21]: > 100 µM | TGI [21]: > 100 µM | GI50 [22]: 60.6 µM | TGI [22]: > 100 µM | GI50 [23]: 52 µM | TGI [23]: > 100 µM | GI50 [24]: 91.9 µM | TGI [24]: > 100 µM | GI50 [25]: 12.3 µM | TGI [25]: 78.8 µM | GI50 [26]: 35.3 µM | TGI [26]: > 100 µM | GI50 [27]: 29.4 µM | TGI [27]: > 100 µM | GI50 [28]: 56.2 µM | TGI [28]: > 100 µM | GI50 [29]: 29.5 µM | TGI [29]: > 100 µM | GI50 [30]: 31.6 µM | TGI [30]: > 100 µM | GI50 [31]: > 100 µM | TGI [31]: > 100 µM | GI50 [32]: 77 µM | TGI [32]: > 100 µM | GI50 [33]: 3.76 µM | TGI [33]: > 100 µM | GI50 [34]: 82.3 µM | TGI [34]: > 100 µM | GI50 [35]: 67.7 µM | TGI [35]: > 100 µM | GI50 [36]: 22.3 µM | TGI [36]: > 100 µM | GI50 [37]: 27.5 µM | TGI [37]: > 100 µM | GI50 [38]: 85.7 µM | TGI [38]: > 100 µM | GI50 [39]: > 100 µM | TGI [39]: > 100 µM | GI50 [40]: 44.9 µM | TGI [40]: > 100 µM | GI50 [41]: 16.6 µM | TGI [41]: 55.1 µM | GI50 [42]: 62.1 µM | TGI [42]: > 100 µM | GI50 [43]: > 100 µM | TGI [43]: > 100 µM | GI50 [44]: 14.3 µM | TGI [44]: 61.7 µM | GI50 [45]: 60.2 µM | TGI [45]: > 100 µM | GI50 [46]: > 100 µM | TGI [46]: > 100 µM | GI50 [47]: 3.7 µM | TGI [47]: 23.6 µM | GI50 [48]: 41.7 µM | TGI [48]: > 100 µM | GI50 [49]: 3.12 µM | TGI [49]: 30.2 µM | GI50 [50]: 34.1 µM | TGI [50]: > 100 µM | GI50 [51]: 54.4 µM | TGI [51]: > 100 µM

Cc1ccnc2c(NC(C)CCCN)cc(O)c(O)c12 (centres undefined)
GI50 [1]: 71.2 µM | TGI [1]: > 100 µM | GI50 [2]: 33.4 µM | TGI [2]: > 100 µM | GI50 [3]: 20.7 µM | TGI [3]: 75 µM | GI50 [4]: > 100 µM | TGI [4]: > 100 µM | GI50 [5]: 36.1 µM | TGI [5]: > 100 µM | GI50 [52]: 38.7 µM | TGI [52]: > 100 µM | GI50 [6]: 4.62 µM | TGI [6]: 29.3 µM | GI50 [7]: 5.15 µM | TGI [7]: 23.9 µM | GI50 [8]: 11.2 µM | TGI [8]: 24.2 µM | GI50 [9]: 21.3 µM | TGI [9]: 61.8 µM | GI50 [10]: 7.83 µM | TGI [10]: 32 µM | GI50 [11]: 13.8 µM | TGI [11]: > 100 µM | GI50 [12]: 27 µM | TGI [12]: > 100 µM | GI50 [53]: 2.12 µM | TGI [53]: 5.33 µM | GI50 [13]: 26.1 µM | TGI [13]: > 100 µM | GI50 [15]: 6.26 µM | TGI [15]: 43.1 µM | GI50 [16]: 8.07 µM | TGI [16]: 51.8 µM | GI50 [17]: 12.5 µM | TGI [17]: 32.9 µM | GI50 [18]: 26.1 µM | TGI [18]: > 100 µM | GI50 [19]: 31.5 µM | TGI [19]: > 100 µM | GI50 [20]: 9.69 µM | TGI [20]: 74.9 µM | GI50 [21]: 29.7 µM | TGI [21]: > 100 µM | GI50 [54]: 19.4 µM | TGI [54]: 52.9 µM | GI50 [22]: 1.97 µM | TGI [22]: 5.9 µM | GI50 [23]: 16 µM | TGI [23]: 74 µM | GI50 [55]: 22.3 µM | TGI [55]: 50.6 µM | GI50 [24]: 6.61 µM | TGI [24]: 34.5 µM | GI50 [25]: 27.7 µM | TGI [25]: > 100 µM | GI50 [26]: 3.98 µM | TGI [26]: 27.3 µM | GI50 [27]: 27.4 µM | TGI [27]: > 100 µM | GI50 [28]: 2.14 µM | TGI [28]: 9.44 µM | GI50 [29]: 16.3 µM | TGI [29]: > 100 µM | GI50 [30]: 2.45 µM | TGI [30]: 7.24 µM | GI50 [31]: 3.11 µM | TGI [31]: 10.1 µM | GI50 [32]: 13.1 µM | TGI [32]: 40.7 µM | GI50 [33]: 6.62 µM | TGI [33]: 82.6 µM | GI50 [34]: 17.1 µM | TGI [34]: 53.8 µM | GI50 [35]: 11 µM | TGI [35]: 76.6 µM | GI50 [36]: 32.3 µM | TGI [36]: > 100 µM | GI50 [37]: 21.2 µM | TGI [37]: 74.2 µM | GI50 [56]: 35.2 µM | TGI [56]: > 100 µM | GI50 [38]: 18.5 µM | TGI [38]: 41.9 µM | GI50 [39]: > 100 µM | TGI [39]: > 100 µM | GI50 [40]: 62.5 µM | TGI [40]: > 100 µM | GI50 [41]: 17.6 µM | TGI [41]: 42.1 µM | GI50 [42]: 39.3 µM | TGI [42]: > 100 µM | GI50 [57]: 2.86 µM | TGI [57]: 13 µM | GI50 [44]: 19 µM | TGI [44]: 81.1 µM | GI50 [45]: 29.3 µM | TGI [45]: 90.3 µM | GI50 [46]: 19.6 µM | TGI [46]: 78.7 µM | GI50 [47]: 11.6 µM | TGI [47]: 43.7 µM | GI50 [58]: 47.7 µM | TGI [58]: > 100 µM | GI50 [48]: 9.43 µM | TGI [48]: 22.8 µM | GI50 [49]: 22.3 µM | TGI [49]: 55.5 µM | GI50 [50]: 32.3 µM | TGI [50]: > 100 µM | GI50 [51]: 61.9 µM | TGI [51]: > 100 µM
